Target: T1, 3-phosphoinositide-dependent protein kinase 1 (Homo sapiens, UniProt O15530)
T1 sequence (O15530 whole entry): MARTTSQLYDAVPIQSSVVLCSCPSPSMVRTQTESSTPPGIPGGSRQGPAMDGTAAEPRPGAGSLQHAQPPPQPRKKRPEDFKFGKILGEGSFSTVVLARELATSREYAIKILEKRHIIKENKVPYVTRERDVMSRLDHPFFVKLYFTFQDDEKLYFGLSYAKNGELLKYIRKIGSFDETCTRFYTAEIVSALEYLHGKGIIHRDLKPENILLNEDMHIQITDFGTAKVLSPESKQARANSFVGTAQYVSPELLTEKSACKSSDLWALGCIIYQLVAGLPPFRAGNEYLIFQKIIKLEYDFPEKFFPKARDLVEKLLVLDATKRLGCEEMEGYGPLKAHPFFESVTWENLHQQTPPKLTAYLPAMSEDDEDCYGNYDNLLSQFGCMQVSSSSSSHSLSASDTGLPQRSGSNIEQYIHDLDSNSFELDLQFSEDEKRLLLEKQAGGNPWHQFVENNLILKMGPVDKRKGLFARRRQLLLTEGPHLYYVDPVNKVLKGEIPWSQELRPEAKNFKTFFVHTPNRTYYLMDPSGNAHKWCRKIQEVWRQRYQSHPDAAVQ
Test: PDK1-mediated AKT2 Activation Assay (cAKT2 33P-SPA)
Conditions: pH 7.2; 22 °C

With `O=C1Nc2ccc(-c3nnn[nH]3)cc2C1=Cc1ccc[nH]1` [(3Z)-3-(1H-pyrrol-2-ylmethylidene)-5-(1H-1,2,3,4-tetrazol-5-yl)-2,3-dihydro-1H-indol-2-one] the IC50 was 200 nM.
